Experimental data reported in the SangsterLogP compilation.

| SMILES | logP |
| --- | --- |
| CCCn1c(=O)c2[nH]c(C3CCCC3)nc2n(CCCF)c1=O | 2.83 |
| COc1cc2c(cc1OC)CN(CCc1ccc(NC(=O)c3cccc4c(=O)c5cccc(OC)c5[nH]c34)cc1)CC2 | 4.82 |
| CN1Cc2c(C(=O)OCCF)ncn2-c2ccc(F)cc2C1=O | 0.93 |
| CCN1CCC[C@H]1CNC(=O)c1cc(I)cc(OC)c1OC | 2.73 |
| CNCC(O)CCN1c2ccccc2N(c2ccccc2)S1(=O)=O (stereo not given) | 2.55 |
| COC(=O)C1C(c2ccc(I)cc2)CC2CCC1N2C (stereo not given) | 2.13 |
| Cn1c2c(c3ccccc31)C[C@@]1(O)[C@@H]3Cc4ccc(O)c5c4[C@@]1(CCN3CC1CC1)[C@H]2O5 | 4.28 |
| Oc1ccccc1OC(c1ccccc1)C1CNCCO1 (stereo not given) | 1.92 |
| CCC(C)NC(=O)c1cc2ccccc2c(-c2ccccc2Cl)n1 (stereo not given) | 3.25 |
| CCN1CCCC1CNC(=O)c1cc(Br)cc(OC)c1OC (stereo in doubt) | 2.37 |
